Measured values: ChEMBL document CHEMBL1201862, “PubChem BioAssay data set” (2004)
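Briefly, cells in 96-well plates were exposed to five compound concentrations for 48 h, and endpoints were estimated by linear interpolation. The concentration for 50% growth inhibition is given as GI50.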 Active and inactive are the calls of the source. No stated cut-off is given here; in the data, active = GI50 up to about 1.1 µM and inactive = higher.

Columns and labels:
Experiment in all cases: inhibition of tumour cell growth, NCI panel, 48 h
[1] = tested on: MDA-N
[2] = tested on: IGROV-1
[3] = tested on: K562
[4] = tested on: SF-539
[5] = tested on: NCI-H23
[6] = tested on: SW-620
[7] = tested on: SNB-19
[8] = tested on: LOX IMVI
[9] = tested on: UACC-62
[10] = tested on: MDA-MB-435
[11] = tested on: NCI-H460
[12] = tested on: NCI-H522
[13] = tested on: T47D
[14] = tested on: DU-145
[15] = tested on: HCT-116
[16] = tested on: M14
[17] = tested on: RXF 393
[18] = tested on: HOP-62
[19] = tested on: HOP-92
[20] = tested on: A549

Measured: GI50

C/C=C(/C)C(=O)O[C@@H]1c2c(C)coc2C[C@H]2CC[C@H](O)[C@H](C)[C@]21C
inactive: [1] 50 µM | [2] 43.3 µM | [3] 38 µM | [4] 31.9 µM | [5] 34.2 µM | [6] 24 µM | [7] > 100 µM | [8] 49.4 µM | [9] 43.8 µM | [10] 38.5 µM | [11] > 100 µM | [12] 60 µM | [13] 68.9 µM | [14] > 100 µM | [15] 31.6 µM | [16] 54.1 µM | [17] 27 µM | [18] > 100 µM | [19] 74.8 µM

c1ccc(COc2ccc(CC3SCCCS3)cc2)cc1
inactive: [1] > 100 µM | [2] 66.2 µM | [20] > 100 µM | [3] 52.5 µM | [6] > 100 µM | [7] > 100 µM | [8] > 100 µM | [9] > 100 µM | [10] > 100 µM | [11] 65.8 µM | [12] > 100 µM | [13] 49.7 µM | [14] > 100 µM | [15] > 100 µM | [16] > 100 µM | [18] > 100 µM | [19] 17.8 µM

NC(CO)c1ccccc1 (stereo unspecified)
inactive: [2] > 100 µM | [20] > 100 µM | [4] > 100 µM | [5] > 10 µM | [6] > 100 µM | [7] > 100 µM | [8] > 100 µM | [9] > 100 µM | [11] > 100 µM | [12] > 100 µM | [15] > 100 µM | [16] > 100 µM | [17] > 100 µM | [18] > 100 µM | [19] > 100 µM
